± gives the expanded uncertainty stated by the source.
Assays:
[1] = 101 kPa, Liquid; for viscosity: Capillary tube (Ostwald / Ubbelohde) method
[2] = refractive index (Na D-line) (dimensionless); details: 101.33 kPa, Liquid, Standard Abbe refractometry
[3] = refractive index (Na D-line) (dimensionless); xn = mol fraction of the nth substance listed; details: 101 kPa, Liquid, Standard Abbe refractometry
[4] = xn = mol fraction of the nth substance listed; details: 101 kPa, Liquid; for viscosity: Capillary tube (Ostwald / Ubbelohde) method

Structure (SMILES)	mass density ([1]; 298.15 K) [kg/m3]	viscosity ([1]; 298.15 K) [mPa·s]	mass density ([1]; 308.15 K) [kg/m3]	viscosity ([1]; 308.15 K) [mPa·s]	mass density ([1]; 318.15 K) [kg/m3]	viscosity ([1]; 318.15 K) [mPa·s]	refractive index ([2]; 298.15 K)	refractive index ([2]; 308.15 K)	refractive index ([2]; 318.15 K)	also measured
CCC(O)CC [3-pentanol]	815.79 ± 0.54	4.625 ± 0.034	806.91 ± 0.56	2.864 ± 0.022	797.66 ± 0.57	1.902 ± 0.015	1.4047 ± 0.0009	1.4029 ± 0.0009	1.3981 ± 0.0009	
CCC(C)=O [butanone]	799.76 ± 0.56	0.391 ± 0.005	789.21 ± 0.58	0.361 ± 0.005	778.52 ± 0.59	0.334 ± 0.005	1.375 ± 0.0009	1.37 ± 0.0009	1.3657 ± 0.0009	
CCC(C)=O [butanone] + CCC(O)CC										refractive index ([3]; 298.15 K, x1 = 1): 1.375 ± 0.0009; refractive index ([3]; 308.15 K, x1 = 1): 1.37 ± 0.0009; refractive index ([3]; 318.15 K, x1 = 1): 1.3657 ± 0.0009; viscosity ([4]; 298.15 K, x1 = 1): 0.391 ± 0.005 mPa·s; mass density ([4]; 298.15 K, x1 = 1): 799.76 ± 0.56 kg/m3; viscosity ([4]; 308.15 K, x1 = 1): 0.361 ± 0.005 mPa·s; mass density ([4]; 308.15 K, x1 = 1): 789.21 ± 0.58 kg/m3; viscosity ([4]; 318.15 K, x1 = 1): 0.334 ± 0.0049 mPa·s; mass density ([4]; 318.15 K, x1 = 1): 778.52 ± 0.59 kg/m3
CCC(C)=O [butanone] + CCCC(C)O										refractive index ([3]; 298.15 K, x1 = 1): 1.375 ± 0.0009; refractive index ([3]; 308.15 K, x1 = 1): 1.37 ± 0.0009; refractive index ([3]; 318.15 K, x1 = 1): 1.3657 ± 0.0009; viscosity ([4]; 298.15 K, x1 = 1): 0.391 ± 0.005 mPa·s; mass density ([4]; 298.15 K, x1 = 1): 799.76 ± 0.56 kg/m3; viscosity ([4]; 308.15 K, x1 = 1): 0.361 ± 0.005 mPa·s; mass density ([4]; 308.15 K, x1 = 1): 789.21 ± 0.58 kg/m3; viscosity ([4]; 318.15 K, x1 = 1): 0.334 ± 0.0049 mPa·s; mass density ([4]; 318.15 K, x1 = 1): 778.52 ± 0.59 kg/m3
CCCCCO [pentan-1-ol]	810.85 ± 0.55	3.54 ± 0.026	803.45 ± 0.56	2.658 ± 0.02	795.9 ± 0.57	2.288 ± 0.017	1.4068 ± 0.0009	1.4031 ± 0.0009	1.3996 ± 0.0009	
CCCCCO [pentan-1-ol] + CCC(C)=O										refractive index ([3]; 298.15 K, x2 = 0): 1.4068 ± 0.0009; refractive index ([3]; 308.15 K, x2 = 0): 1.4031 ± 0.0009; refractive index ([3]; 318.15 K, x2 = 0): 1.3996 ± 0.0009; viscosity ([4]; 298.15 K, x2 = 0): 3.54 ± 0.026 mPa·s; mass density ([4]; 298.15 K, x2 = 0): 810.85 ± 0.55 kg/m3; viscosity ([4]; 308.15 K, x2 = 0): 2.658 ± 0.02 mPa·s; mass density ([4]; 308.15 K, x2 = 0): 803.45 ± 0.56 kg/m3; viscosity ([4]; 318.15 K, x2 = 0): 2.288 ± 0.017 mPa·s; mass density ([4]; 318.15 K, x2 = 0): 795.9 ± 0.57 kg/m3
CCCC(C)O (stereo not drawn) [pentan-2-ol]	805.3 ± 0.56	3.478 ± 0.026	797 ± 0.57	2.361 ± 0.018	788.37 ± 0.58	1.772 ± 0.014	1.4032 ± 0.0009	1.399 ± 0.0009	1.395 ± 0.0009	
